Source: US6806264B2, “Arylphenyl-substituted cyclic ketoenols” (Bayer Aktiengesellschaft, priority 1998, dated 2004)

Legend:
[1] = test system: peach aphids (Myzus persicae); assay: Myzus test; type: in vivo; conditions: concentration of active compound 0.1 %, infested cabbage leaves (Brassica oleracea) dipped
[2] = test system: larvae of the mustard beetle (Phaedon cochileariae); assay: Phaedon larvae test; conditions: concentration of active compound 0.1 %, cabbage leaves (Brassica oleracea) dipped
[3] = test system: caterpillars of the army worm (Spodoptera frugiperda); assay: Spodoptera frugiperda test; type: in vivo; conditions: concentration of active compound 0.1 %, cabbage leaves (Brassica oleracea) dipped
[4] = test system: greenhouse red spidermite (Tetranychus urticae); assay: Tetranychus test (OP-resistant/dip treatment); type: in vivo; conditions: concentration of active compound 0.1 %, infested bean plants (Phaseolus vulgaris) dipped, OP-resistant
Method: After the desired period of time, the effect in % is determined.

SMILES	Degree of kill in % after 6 days [1]	melting point	Degree of kill in % after 7 days [2]	Degree of kill in % after 7 days [3]	Degree of kill in % after 7 days [4]
Cc1ccc(-c2ccccc2)c(C)c1C1=C(O)C2(CCC(C)CC2)NC1=O (stereo not drawn) [Ex. I-1-a-2]	95%	> 240 °C	100%		
Cc1ccc(-c2ccc(Cl)cc2)c(C)c1C1=C(O)C2(CCC(C)CC2)NC1=O (stereo not drawn) [Ex. I-1-a-3]	98%	> 240 °C	100%	100%	100%
COC1CCC2(CC1)NC(=O)C(c1c(C)cc(C)c(-c3ccc(Cl)cc3)c1C)=C2O (stereo not drawn) [Ex. I-1-a-5]		> 240 °C	100%	100%	
COC1CCC2(CC1)NC(=O)C(c1c(C)cc(C)c(-c3ccccc3)c1C)=C2O (stereo not drawn) [Ex. I-1-a-6]	100%	> 240 °C	100%	100%	
Cc1ccc(-c2ccc(Cl)cc2)c(C)c1C1=C(O)C2(CCCOC2)NC1=O (stereo not drawn) [Ex. I-1-a-7]	98%	> 250 °C	100%	100%	
COc1cc(Cl)c(C2=C(O)C3(CCC(OC)CC3)NC2=O)cc1-c1ccccc1 (stereo not drawn) [Ex. I-1-a-13]		134 °C	100%		
